Like-named read-outs stand apart in the source and are kept apart here.
How the values were obtained:
Test in all cases: Fluorescence polarization-based galectin inhibition assay
Format in all cases: binding
[1] = target: T1, galectin-4 (C-terminal domain) (Homo sapiens, UniProt P56470); details: 20° C., read-out: Calculated Kd Galectin 4 (C-terminal domain)
T1 sequence (P56470 194-323 limits assumed): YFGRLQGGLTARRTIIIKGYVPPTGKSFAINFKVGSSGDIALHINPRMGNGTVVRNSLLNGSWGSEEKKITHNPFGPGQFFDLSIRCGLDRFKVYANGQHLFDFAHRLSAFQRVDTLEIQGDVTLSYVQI
Source text: (§1) Identification of the substances was made by HRMS (Micromass Q-tof micro) and NMR (Bruker Ultrashield 400 plus, 400 MHz). Chemical shifts are reported downfield from Me4Si using residual […] (7.26 ppm) or CHD2OD (3.35 ppm) as reference. Chemical shifts and coupling constants were obtained from ^1H-NMR and proton resonances were assigned from COSY experiments. Purification was made by RF-HPLC (Beckman, system gold) or flash chromatography, using silica gel (Davisil 35-70 μm, 60 Å). Reactions were followed by TLC (Aluminum sheet, silica gel 60 F254) visualized with UV light, H2SO4 (aq) or an iso-vanillin/H2SO4/EtOH development solution. THF and Et2O were dried over sodium/benzophenone and distilled. CH2Cl2 was dried by molecular sieves (4 Å, 1.6 mm). Other solvents and reagents were commercially available and used without further purifications. Fluorescence polarization experiments were performed on a PolarStar instrument (BMG, Offenburg; Germany). Evaluation of 20-34 as inhibitors of galectins was performed by use of fluorescence polarization as described in the literature (Sorme et al., 2003a, 2004). Galectin concentrations and fluorescent probe choice and concentrations were as described in Cumpstey et al. 2005a, except for galectin-3 for which the probe tdga-probe described in Salomonsson et al. 2010 was used at 20 nM together with galectin-3 at 200 nM concentrations. Each inhibitor was tested in duplicate at several concentrations between 4 and 0.25 μM. All fluorescence polarization experiments were conducted at 20° C., except galectin-7 for which experiments were conducted at 0° C.

galectin-3 = galectin-3 (Homo sapiens, UniProt P17931); details: 20° C., tdga-probe 20 nM, galectin-3 200 nM, read-out: Calculated Kd Galectin 3
Chain of galectin-3 (P17931 whole entry, species assumed): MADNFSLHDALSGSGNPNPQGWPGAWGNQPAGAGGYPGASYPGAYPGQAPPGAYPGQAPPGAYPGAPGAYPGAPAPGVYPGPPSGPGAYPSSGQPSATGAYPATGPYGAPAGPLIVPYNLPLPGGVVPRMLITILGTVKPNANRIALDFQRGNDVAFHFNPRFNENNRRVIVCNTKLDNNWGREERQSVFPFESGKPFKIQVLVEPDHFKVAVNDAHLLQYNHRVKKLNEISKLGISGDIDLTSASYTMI
Source text: as §1

[2] = target: T2, galectin-8 (N-terminal domain) (Homo sapiens, UniProt O00214); details: 20° C., read-out: Calculated Kd Galectin 8 (N-terminal domain)
T2 sequence (O00214 19-152 limits assumed): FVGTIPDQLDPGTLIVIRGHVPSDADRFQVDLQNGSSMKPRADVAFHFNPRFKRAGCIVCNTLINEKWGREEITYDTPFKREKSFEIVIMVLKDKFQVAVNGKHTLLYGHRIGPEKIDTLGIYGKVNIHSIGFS
Source text: as §1

[3] = target: galectin-9 (C-terminal domain) (Homo sapiens, UniProt O00182); details: 20° C., read-out: Calculated Kd Galectin 9 (C-terminal domain)
Chain of galectin-9 (C-terminal domain) (O00182 227-355 limits assumed, species assumed): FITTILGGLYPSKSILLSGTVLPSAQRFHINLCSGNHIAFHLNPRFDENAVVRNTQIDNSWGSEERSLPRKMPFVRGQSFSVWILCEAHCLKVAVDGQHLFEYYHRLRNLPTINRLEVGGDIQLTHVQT
Source text: as §1

[4] = target: T3, galectin-4 (N-terminal domain) (Homo sapiens, UniProt P56470)
T3 sequence (P56470 19-150 limits assumed): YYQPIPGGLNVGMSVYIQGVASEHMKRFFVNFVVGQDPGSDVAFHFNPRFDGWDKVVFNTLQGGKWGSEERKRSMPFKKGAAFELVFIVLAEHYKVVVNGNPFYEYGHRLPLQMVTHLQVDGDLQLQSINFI
Source text: as §1

galectin-1 = galectin-1 (Homo sapiens, UniProt P09382); details: 20° C., read-out: Calculated Kd Galectin 1
Chain of galectin-1 (P09382 whole entry, species assumed): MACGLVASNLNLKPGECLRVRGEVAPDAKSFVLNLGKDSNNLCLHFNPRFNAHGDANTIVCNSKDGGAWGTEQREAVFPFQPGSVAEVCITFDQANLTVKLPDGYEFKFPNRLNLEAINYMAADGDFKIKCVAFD
Source text: as §1

[5] = target: galectin-9 (N-terminal domain) (Homo sapiens, UniProt O00182); details: 20° C., read-out: Calculated Kd Galectin 9 (N-terminal domain)
Chain of galectin-9 (N-terminal domain) (O00182 17-148 limits assumed, species assumed): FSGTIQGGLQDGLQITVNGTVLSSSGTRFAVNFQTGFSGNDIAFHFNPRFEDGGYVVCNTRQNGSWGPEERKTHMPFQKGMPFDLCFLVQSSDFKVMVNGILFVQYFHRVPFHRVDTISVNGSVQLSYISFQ
Source text: as §1

galectin-7 = galectin-7 (Homo sapiens, UniProt P47929); details: 0° C., read-out: Calculated Kd Galectin 7
Chain of galectin-7 (P47929 whole entry, species assumed): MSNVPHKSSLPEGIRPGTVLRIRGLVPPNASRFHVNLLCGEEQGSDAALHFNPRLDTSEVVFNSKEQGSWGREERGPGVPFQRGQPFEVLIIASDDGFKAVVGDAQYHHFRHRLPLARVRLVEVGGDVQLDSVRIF
Source text: as §1

[6] = fluorescence polarization, 20° C., read-out: Calculated Kd Galectin 4 (N-terminal domain)

Row | Kd [1] [µM] | Kd (galectin-3) [µM] | Kd [2] [µM] | Kd [3] [µM] | Kd [4] [µM] | Kd (galectin-1) [µM] | Kd [5] [µM] | Kd (galectin-7) [µM] | Kd [4, 6] [µM] | SMILES
1 | 156 | 0.25 | 11 | 2.4 | 49 | 15.4 | 1.7 | 3.9 |  | O=c1oc2ccccc2cc1CO[C@H]1[C@@H](O)[C@@H](CO)O[C@@H](S[C@@H]2O[C@H](CO)[C@H](O)[C@H](OCc3cc4ccccc4oc3=O)[C@H]2O)[C@@H]1O [Compound 20, bis-{3-O-[(2H-1-benzopyran-2-on-3-yl)-methyl]-β-D-galactopyranosyl}sulfane]
2 |  | 4.7 | 74 |  |  | 21 | 140 | 61 |  | O=c1oc2cc(Cl)ccc2cc1CO[C@H]1[C@@H](O)[C@@H](CO)O[C@@H](S[C@@H]2O[C@H](CO)[C@H](O)[C@H](OCc3cc4ccc(Cl)cc4oc3=O)[C@H]2O)[C@@H]1O [Compound 21, bis-{3-O-[(7-chloro-2H-1-benzopyran-2-on-3-yl)-methyl]-β-D-galactopyranosyl}sulfane]
3 | > 300 | 0.076 | 40 |  |  | 3.9 | 1.5 |  | 32 | O=c1oc2cc(O)ccc2cc1COC1C(O)[C@H](S[C@@H]2OC(CO)[C@H](O)C(OCc3cc4ccc(O)cc4oc3=O)C2O)OC(CO)[C@@H]1O (stereo partly drawn) [Compound 23, bis-{3-O-[(7-hydroxy-2H-1-benzopyran-2-on-3-yl)-methyl]-β-D-galactopyranosy}sulfane]
4 | > 300 | 0.15 | 140 |  |  | 20 | 8.9 |  | 180 | O=c1oc2ccc(O)cc2cc1COC1C(O)[C@H](S[C@@H]2OC(CO)[C@H](O)C(OCc3cc4cc(O)ccc4oc3=O)C2O)OC(CO)[C@@H]1O (stereo partly drawn) [Compound 24, bis-{3-O-[(6-hydroxy-2H-1-benzopyran-2-on-3-yl)-methyl]-β-D-galactopyranosy}sulfane]
5 | > 300 | 0.51 | > 300 |  |  | 22 | 4.7 |  | 110 | O=c1oc2ccc3ccccc3c2cc1CO[C@H]1[C@@H](O)[C@@H](CO)O[C@@H](S[C@@H]2O[C@H](CO)[C@H](O)[C@H](OCc3cc4c(ccc5ccccc54)oc3=O)[C@H]2O)[C@@H]1O [Compound 25, bis-{3-O-[(3H-naphtho[2,1-b]pyran-3-on-2-yl)-methyl]-β-D-galactopyranosyl}sulfane]
6 | > 1000 | 8.1 | 62 | 17 |  | 25 | 39 |  | > 1000 | CC(C)(C)c1ccc2oc(=O)c(COC3C(O)[C@H](S[C@@H]4OC(CO)[C@H](O)C(OCc5cc6cc(C(C)(C)C)ccc6oc5=O)C4O)OC(CO)[C@@H]3O)cc2c1 (stereo partly drawn) [Compound 26, bis-{3-O-[(6-tert-butyl-2H-1-benzopyran-2-on-3-yl)-methyl]-β-D-galactopyranosy}sulfane]
7 | 100 | 6 | 34 | 86 |  | 7.9 | > 200 |  | 430 | O=c1oc2ccc(Cl)cc2cc1COC1C(O)[C@H](S[C@@H]2OC(CO)[C@H](O)C(OCc3cc4cc(Cl)ccc4oc3=O)C2O)OC(CO)[C@@H]1O (stereo partly drawn) [Compound 27, bis-{3-O-[(6-chloro-2H-1-benzopyran-2-on-3-yl)-methyl]-β-D-galactopyranosy}sulfane]
8 | > 1000 | 0.097 | 47 | 7.9 |  | 3.4 | 3.5 |  | 180 | O=c1oc2ccc(F)cc2cc1CO[C@H]1[C@@H](O)[C@@H](CO)O[C@@H](S[C@@H]2O[C@H](CO)[C@H](O)[C@H](OCc3cc4cc(F)ccc4oc3=O)[C@H]2O)[C@@H]1O [Compound 28, Bis-{3-O-[(6-fluoro-2H-1-benzopyran-2-on-3-yl)-methyl]-β-D-galactopyranosyl}sulfane]
9 | 220 | 0.11 | 19 | 2.3 |  | 1.6 | 3 |  | 44 | O=c1oc2cc(F)c(F)cc2cc1COC1C(O)[C@H](S[C@@H]2OC(CO)[C@H](O)C(OCc3cc4cc(F)c(F)cc4oc3=O)C2O)OC(CO)[C@@H]1O (stereo partly drawn) [Compound 29, bis-{3-O-[(6,7-difluoro-2H-1-benzopyran-2-on-3-yl)-methyl]-β-D-galactopyranosy}sulfane]
10 | > 1000 | 0.17 | 28 | 16 |  | 25 | 54 |  | 55 | O=c1oc2cccc(Cl)c2cc1CO[C@H]1[C@@H](O)[C@@H](CO)O[C@@H](S[C@@H]2O[C@H](CO)[C@H](O)[C@H](OCc3cc4c(Cl)cccc4oc3=O)[C@H]2O)[C@@H]1O [Compound 30, bis-{3-O-[(5-chloro-2H-1-benzopyran-2-on-3-yl)-methyl]-β-D-galactopyranosyl}sulfane]
11 | 540 | 0.061 | 28 | 5.5 |  | 8.7 | 7 |  | 46 | O=c1oc2cccc(F)c2cc1CO[C@H]1[C@@H](O)[C@@H](CO)O[C@@H](S[C@@H]2O[C@H](CO)[C@H](O)[C@H](OCc3cc4c(F)cccc4oc3=O)[C@H]2O)[C@@H]1O [Compound 31, Bis-{3-O-[(5-fluoro-2H-1-benzopyran-2-on-3-yl)-methyl]-β-D-galactopyranosyl}sulfane]
12 | > 500 | 0.032 | 41 | 1.5 |  | 3.9 | 1.1 |  | 22 | O=c1oc2ccc(F)c(F)c2cc1CO[C@H]1[C@@H](O)[C@@H](CO)O[C@@H](S[C@@H]2O[C@H](CO)[C@H](O)[C@H](OCc3cc4c(F)c(F)ccc4oc3=O)[C@H]2O)[C@@H]1O [Compound 32, Bis-{3-O-[(5,6-difluoro-2H-1-benzopyran-2-on-3-yl)-methyl]-β-D-galactopyranosyl}sulfane]
13 | > 500 | 0.95 | 110 | 21 |  | 84 | 29 |  | > 500 | O=c1oc2ccc(OC(F)(F)F)cc2cc1COC1C(O)[C@H](S[C@@H]2OC(CO)[C@H](O)C(OCc3cc4cc(OC(F)(F)F)ccc4oc3=O)C2O)OC(CO)[C@@H]1O (stereo partly drawn) [Compound 33, bis-{3-O-[(6-trifluoromethoxy-2H-1-benzopyran-2-on-3-yl)-methyl]-β-D-galactopyranosy}sulfane]
14 | > 500 | 9.4 | > 700 | > 500 |  | 200 | > 200 |  | > 500 | Cc1ccc2cc(COC3C(O)[C@H](S[C@@H]4OC(CO)[C@H](O)C(OCc5cc6ccc(C)cc6oc5=O)C4O)OC(CO)[C@@H]3O)c(=O)oc2c1 (stereo partly drawn) [Compound 34, bis-{3-O-[(7-methyl-2H-1-benzopyran-2-on-3-yl)-methyl]-β-D-galactopyranosy}sulfane]
15 |  | 10.7 |  |  |  | 14.7 | 2.8 | 48 |  | O=C(OC1C(O)[C@H](S[C@@H]2OC(CO)[C@H](O)C(OC(=O)c3ccc4ccccc4c3)C2O)OC(CO)[C@@H]1O)c1ccc2ccccc2c1 (stereo partly shown) [Compound 35, reference compound]
16 |  | 0.16 | > 100 |  |  | 9.6 | 0.73 | 1.7 |  | O=C(NC1C(O)[C@H](S[C@@H]2OC(CO)[C@H](O)C(NC(=O)c3ccc4ccccc4c3)C2O)OC(CO)[C@@H]1O)c1ccc2ccccc2c1 (stereo partly shown) [Compound 36, reference compound]
17 |  |  |  | 5000 |  |  | 3400 | 4800 |  | CO[C@@H]1OC(CO)[C@H](O)C(O)C1O (stereo partly drawn) [methyl β-D-galactoside, reference compound]
